From US11026943B2, “Aminoquinoline derivatives and uses thereof” (UNIVERSITY OF DELHI, priority 2012, dated 2021)

Experiments:
[1] = molecular target: T1, Nurr1 interaction with SRC-1 and SRC-3 (Mus musculus, UniProt Q06219); assay: Co-immunoprecipitation of Nurr1 with SRC-1/SRC-3 in SK-N-BE(2)C cells; format: cell-based; conditions: 30 μM AQ or 100 μM CQ for 16 hours
T1 construct: the C-terminal myc-tagged full-length Nurr1; His (from vector pCDNA3.1/myc-His) (C); expressed in transfected cells; host or cells: SK-N-BE(2)C human neuroblastoma cells

[2] = system: aphakia (ak/ak) mice; assay: Behavioral studies in ak/ak mice (Pole, Challenging Beam, Cylinder, Rotarod) and SN histology; format: in vivo, mouse
Experimental: Either 20 mg/kg of AQ (AQ group) or the saline (Saline group) was intraperitoneally injected (I.P.) twice per day for two weeks. 8 mg/kg of L-DOPA (L-DOPA group) in 0.5% DMSO was injected (I.P.) once per day for two weeks. The L-DOPA group was given 12.5 mg/kg benserazide 20 min prior to administration of L-DOPA.
Each ak mouse was randomly assigned into one of three experiment groups, (1) saline group (negative control; n=8), (2) L-DOPA group (positive control; n=8), (3) AQ group (n=10). Each WT or rdl mouse was randomly divided into two groups, (1) saline group (n=8) and (2) AQ group (n=10). Pole Test, Challenging Beam Traversal Test, and Cylinder Test were performed at two time points, immediately and one month after two weeks of either AQ or saline injection. Each mouse ran each task twice. Rota rod test was performed immediately after two weeks of either drug or saline injection. Acclimation and data recording process were identical to the rat study described above. All tasks were performed as described previously^11 and the short description of each task is as follows.
A vertical wooden pole 50 cm in length and 1 cm in diameter was used for Pole Test. Each mouse was gently placed head upwards on top of the pole which is placed on each animal's home cage. Each mouse ran tree trials per session during 2 training sessions. On the testing day, mice ran three trials. Two parameters (the meantime to orient downward and the total travel mean time) were used for the statistical analysis.
A 1 m length of plastic beam was used for Challenging Beam Traversal Test. The starting width of the beam was 3.5 cm and it gradually narrowed in 1 c increments to 0.5 cm at the other end site of the beam. Animals were trained to walk from the wide end to the other end for 2 sessions, three trials per session before testing. A mesh grid was removed during the training period. On the testing day, a mesh grid (1 cm square) covering the beam surface was equipped leaving a […] room between the grid and the beam surface. On the testing day, mice ran three trials. Two parameters (the mean number of steps taken by each animal and the mean time to traverse across three trials) were collected and used for statistical analysis.
A small transparent cylinder (height, 15.5 cm; diameter, 12.7 cm) was used to evaluate somatosensory motor function. Mice were placed in the cylinder and their rears were counted for 5 minutes. The forelimb touching the Plexiglas wall (a vertical movement) is defined as a full rear. The mean number of forelimb use was calculated for the statistical analysis. […]
The Rota rod equipment (Med-Associates, Inc, Albans, Vt., USA) was used to measure motor coordination. […] The mean latency to fall off from the Rota rod was measured for the statistical analysis. […]

[3] = system: LBDs of Nur77, GR, LXR, RXR, PPARα, PPARγ; assay: Target selectivity: GAL4-LBD reporter assays of other nuclear receptors; format: cell-based; conditions: FIG. 19; 30 μM AQ
[4] = molecular target: T2, Nurr1 DBD (Mus musculus, UniProt Q06219); assay: GAL4 / GAL4-Nurr1 DBD reporter assay; format: cell-based
T2 construct: the yeast transcription factor GAL4's DBD is fused to either Nurr1 LBD or DBD; expressed in transfected cells; host or cells: SK-N-BE(2)C human neuroblastoma cells

[5] = system: Nurr1 recruitment to TH promoter NL1 and NL3; assay: Chromatin immunoprecipitation in PC12 cells; format: cell-based, rat; conditions: 20 μM AQ or 75 μM CQ for 15 hrs
Experimental: Error bars represent standard deviations.
Cells were washed with PBS, fixed with 1% formaldehyde, lysed, and sonicated according to the manufacturer's instruction (Active Motif). 25 μg of soluble chromatin DNA were co-immunoprecipitated 1 μg of Nurr1 specific antibody (E-20, Santa Cruz) or control antibody (rabbit IgG, santa Cruz). […] Values are shown as fold induction compared to mock treated control cells.

[6] = molecular target: T3, Nurr1 LBD with SRC-1/SRC-3 (Mus musculus, UniProt Q06219); assay: Nurr1 LBD transactivation with VP16-SRC1/VP16-SRC3 overexpression; format: cell-based; conditions: 30 μM AQ or 100 μM CQ for 16 hours
T3 construct: The Nurr1 LBD fragment from amino acid position 328 to amino acid position 598 was PCR-amplified; expressed in transfected cells; host or cells: SK-N-BE(2)C human neuroblastoma cells

[7] = molecular target: T4, Nurr1 LBD (Mus musculus, UniProt Q06219); assay: Surface plasmon resonance (BIAcore) binding, Nurr1-LBD
Experimental: Binding experiments were performed with the surface Plasmon Resonance-based biosensor instrument BIAcore 3000 (BIAcore AB, Uppsala). Immobilization of the purified proteins on the sensor surface was performed following the standard amine coupling procedure according to manufacturer's instructions. The final immobilization response of each protein was 6000 resonance units. A reference surface was generated simultaneously under the same conditions with BSA and used as a blank to correct for instrument and buffer artifacts. AQ and kanamycin were injected at variable concentrations at 20 μl/min flow rate, and binding to the protein immobilized on the chip was monitored in real-time. […] Binding data were analyzed using the BIAcore 3000 CONTROL® software and the BIAEVALUATION® software.
To investigate whether AQ and CQ physically interact with Nurr1's LBD, the inventors purified the Nurr1 LBD polypeptide (amino acid 328-598) and analyzed their physical binding using the Biacore S51 SPR sensor, which has a higher sensitivity and improved fluidics, enabling the monitoring of small signal changes derived from binding of compounds to proteins.

[8] = system: primary cultures of rat mesencephalic DA neurons; assay: 6-OHDA-induced death in primary mesencephalic DA neurons (TH+ count, [3H]DA uptake); format: cell-based; conditions: number of TH+ neurons and DA uptake; 20 μM 6-OHDA for 24 hr
[9] = molecular target: T4, Nurr1 LBD; assay: Fluorescence quenching assay, Nurr1-LBD; format: binding; conditions: increasing amounts of AQ, 0.1 nM-1 μM
Experimental: Fluorescence spectra were measured using a SHIMADZU fluorescence spectrophotometer (model RF-5310PC, SHIMADZU). The proteins (15 ng/μl) were incubated with different concentrations of AQ or kanamycin (0.1 nM, 1 nM, 10 nM, 100 nM and 1 μM in PBS buffer, pH7.0). Protein quenching was monitored at 25° C. by using 5 nm of excitation and 5 nm of emission slit-width. The excitation wavelength was 280 nm, and the emission spectra were measured between 290 and 430 nm.

T4 sequence (Q06219 328-598): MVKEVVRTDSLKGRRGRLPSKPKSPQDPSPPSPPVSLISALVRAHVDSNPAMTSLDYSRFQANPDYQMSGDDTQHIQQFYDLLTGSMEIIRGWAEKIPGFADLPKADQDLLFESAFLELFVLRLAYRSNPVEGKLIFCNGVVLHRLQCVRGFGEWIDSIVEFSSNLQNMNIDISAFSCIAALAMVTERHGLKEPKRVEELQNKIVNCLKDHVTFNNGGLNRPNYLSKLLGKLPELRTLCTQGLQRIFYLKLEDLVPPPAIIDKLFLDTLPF
T1 sequence (Q06219 whole entry): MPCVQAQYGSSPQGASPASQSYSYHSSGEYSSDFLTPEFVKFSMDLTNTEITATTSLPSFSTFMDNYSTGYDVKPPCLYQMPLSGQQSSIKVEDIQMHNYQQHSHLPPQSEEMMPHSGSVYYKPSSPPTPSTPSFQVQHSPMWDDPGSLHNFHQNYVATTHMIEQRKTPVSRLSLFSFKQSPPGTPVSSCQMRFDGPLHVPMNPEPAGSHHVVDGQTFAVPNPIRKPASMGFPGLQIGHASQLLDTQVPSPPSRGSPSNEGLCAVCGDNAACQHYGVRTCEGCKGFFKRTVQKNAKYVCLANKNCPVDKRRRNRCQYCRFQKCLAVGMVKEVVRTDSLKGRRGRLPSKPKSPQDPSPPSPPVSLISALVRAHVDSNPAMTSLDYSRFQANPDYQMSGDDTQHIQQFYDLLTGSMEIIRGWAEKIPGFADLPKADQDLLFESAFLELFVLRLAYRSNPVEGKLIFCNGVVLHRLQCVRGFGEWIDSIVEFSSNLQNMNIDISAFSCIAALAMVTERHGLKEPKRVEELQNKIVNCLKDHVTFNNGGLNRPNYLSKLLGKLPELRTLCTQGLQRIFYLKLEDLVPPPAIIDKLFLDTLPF
T3 sequence (Q06219 328-598): as the sequence (Q06219 328-598) above
T2 sequence (Q06219 260-335 limits assumed): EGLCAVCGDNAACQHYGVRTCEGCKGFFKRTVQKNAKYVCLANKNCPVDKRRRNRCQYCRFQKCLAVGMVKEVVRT

Nurr1 interactions with SRC-1 and SRC-3 [1]: significantly enhanced
transcriptional activity of other nuclear receptors [3]: unable to induce
response with GAL4 or GAL4-Nurr1 DBD [4]: no response
Nurr1 transcriptional function with SRC-1/SRC-3 overexpression [6]: further enhanced
binding to Nurr1-LBD (SPR) [7]: specifically bound
SMILES: CCN(CC)Cc1cc(Nc2ccnc3cc(Cl)ccc23)ccc1O [AQ, amodiaquine]
motor deficits in Pole, Challenging Beam, Cylinder and Rotarod tests ([2]; 2 weeks of AQ 20 mg/kg i.p. twice per day): significantly improved
activated microglia (CD11b) in the SN ([2]; after AQ for 2 weeks): reduced to the level of wild type mice
number of TH+ neurons in ak/ak mice ([2]; data not shown): not detectably altered
Nurr1 recruitment to NL1 and NL3 sites of the TH promoter [5]: recruited to both NL1 and NL3 sites
6-OHDA-induced death in primary DA neurons [8]: significantly inhibit
fluorescence quenching of Nurr1-LBD [9]: fluorescence intensity gradually decreased
